Values quoted from earlier work as cited in patent publication US9050307B2, “Method for the preparation of a levothyroxine solution” (EMP Pharma GmbH, priority 2011, dated 2015).

For `N[C@@H](Cc1cc(I)c(Oc2cc(I)c(O)c(I)c2)c(I)c1)C(=O)[O-].[Na+]` [Levothyroxine sodium, Sodium (2S)-2-amino-3-[4-(4-hydroxy-3,5-diiodophenoxy)-3,5-diiodophenyl]propanoate], the “Solubility in ethanol (96 percent)” value (ethanol (96 percent)) is given as “slightly soluble” and the Solubility in water (water) is given as “very slightly soluble”.
